Measurements: paper PMC11628855 (Acta Pharmaceutica Sinica. B, 2024)

Biological target: T1, GacS (12–166)-His (Pseudomonas aeruginosa, UniProt G3XD98)
T1 sequence (G3XD98 12-166): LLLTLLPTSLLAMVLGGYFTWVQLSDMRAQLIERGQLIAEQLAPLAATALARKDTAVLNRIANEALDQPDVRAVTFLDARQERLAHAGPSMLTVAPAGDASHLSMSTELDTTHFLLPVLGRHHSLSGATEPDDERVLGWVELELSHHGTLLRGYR
Assay: microscale thermophoresis
Type: binding

CCCCCCNC(=O)CNc1nc2ccc(OC)cc2s1 [SN12, N-Hexyl-2-((6-methoxybenzo[d]thiazol-2-yl)amino)acetamide]
Kd: 12.8 ± 0.68 µM
